Test results reported in PMC5644030 (Biochemistry, 2017).

How the values were obtained:
Rv3404c [1] = molecular target: T1, Rv3404c (Mycobacterium tuberculosis, UniProt P9WKZ3)
Rv3404c [2] = molecular target: T1, Rv3404c; remark: listed apart in the source

T1 sequence (P9WKZ3 whole entry): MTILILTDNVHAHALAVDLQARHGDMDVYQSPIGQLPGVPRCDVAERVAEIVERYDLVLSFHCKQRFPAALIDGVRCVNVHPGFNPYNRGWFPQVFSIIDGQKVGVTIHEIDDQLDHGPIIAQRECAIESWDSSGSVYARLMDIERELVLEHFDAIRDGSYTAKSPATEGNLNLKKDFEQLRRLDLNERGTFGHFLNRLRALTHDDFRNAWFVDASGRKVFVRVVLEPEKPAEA

SMILES | X-ray crystallography, 1.6 Å ternary complex (Rv3404c [1]) | HPLC and ESI mass spectrometry of product (Rv3404c [2])
Nc1nc2c(c(=O)[nH]1)N(C=O)[C@@H](CNc1ccc(C(=O)N[C@@H](CCC(=O)O)C(=O)O)cc1)CN2 [N5-formyl-THF] | The structure of Rv3404c in complex with N5-formyltetrahydrofolate (N5-formyl-THF) and dTDP-Qui4N was determined | 
Nc1nc2c(c(=O)[nH]1)N[C@@H](CN(C=O)c1ccc(C(=O)N[C@@H](CCC(=O)O)C(=O)O)cc1)CN2 [N10-formyl-THF] |  | Upon incubation of dTDP-Qui4N and N10-formyl-THF with Rv3404c, a peak was observed
